Data as given in patent publication US12636290B2, “BET inhibitors for modulating DUX4 expression in FSHD” (Saint Louis University, priority 2018, dated 2026).
Where two headings read alike, the source gives them in different places.

System: DUX4 expression (surrogate marker MBD3L2)
Experiment: Screening: qPCR analysis of DUX4 target gene MBD3L2 in differentiating MB200 FSHD2 muscle cells
Format: cell-based
Conditions: Homo sapiens, 40 hours, DUX4 expression inferred from surrogate marker MBD3L2 expression (qPCR, normalized to RPL30)
Procedure: Cells and Cell Culture. Primary human myoblast cell lines, immortalized by retroviral transduction of cyclin-dependent kinase 4 (CDK4) and human telomerase reverse transcriptase (hTERT) (Stadler, et al., 2011), were obtained from the Fields Center at the University of Rochester (world-wide-web at urmc.rochester.edu/fields-center.aspx). Immortalized myoblasts were grown in Ham's F-10 Nutrient Mix (Gibco, Waltham, MA, USA) supplemented with 20% HyClone Fetal Bovine Serum (GE Healthcare Life Sciences, Pittsburgh, PA, USA), 100 U/100 μg penicillin/streptomycin (Gibco), 10 ng/ml recombinant human fibroblast growth factor (Promega Corporation, Madison, WI, USA) and 1 μM dexamethasone (Sigma-Aldrich). Differentiation of myoblasts into myotubes was achieved by switching the fully confluent myoblast monolayer into Dulbecco's Modified Eagle Medium (DMEM) (Gibco) containing 1% horse serum (Gibco), 100 U/100 μg penicillin/streptomycin, 10 μg/ml insulin (Sigma-Aldrich) and 10 μg/ml transferrin (Sigma-Aldrich) (HS/IT media) or DMEM:F12 Nutrient Mixture (1:1, Gibco) supplemented with 2% KnockOut Serum Replacement (Gibco), 100 U/100 μg penicillin/streptomycin, 10 μg/ml insulin and 10 μg/ml transferrin (KSR media) for 2-6 days.
Screening: qPCR analysis of DUX4 target genes MBD3L2. For screening compounds, differentiating MB200 FSHD2 muscle cells were exposed to BET inhibitors at a variety of concentrations for 40 hours to determine the effects of the drugs on DUX4 expression. Cell lysates were prepared using Cells-to-Ct Bulk Lysis Reagents (Invitrogen, Waltham, MA, USA). Gene expression was measured by quantitative polymerase chain reaction (qPCR) was carried out on a QuantStudio 5 (Applied Biosystems, Waltham, MA, USA) using TaqMan Gene Expression Assays (Applied Biosystems) and TaqMan Fast Virus 1-Step Master Mix (Invitrogen). The relative expression levels of DUX4 target gene methyl-CpG binding domain protein 3 like 2 (MBD3L2), was normalized to that of the reference gene ribosomal protein L30 (RPL30), which was included in multiplex (two gene) PCR reactions. TaqMan Gene Expression Assay ID numbers: MBD3L2, Hs00544743_m1; RPL30, Hs00265497_m1. Data is expressed as relative expression with the expression in absence of inhibitors set to one.
Analysis of MBD3L2 expression in cultured FSHD2 cells. DUX4 mRNA is present in very low levels, even in differentiating FSHD2 myoblasts, so DUX4 target gene MBD3L2 was used as a surrogate marker of DUX4 expression. FSHD2 patient derived muscle cells were analyzed to determine whether BET inhibitors affect MBD3L2 expression, indicating a reduction in DUX4 expression.

Cn1cc(-c2ccc3cc(-c4ccc(OCCO)nc4)ccc3n2)c2cc[nH]c2c1=O [SLU-2232, 4-{6-[6-(2-hydroxyethoxy)pyridin-3-yl]quinolin-2-yl}-6-methyl-1H-pyrrolo[2,3-c]pyridin-7(6H)-one]
IC50 (read-out: DUX4* MT FSHD2: IC50): 97 nM
IC50 (read-out: DUX4* MT FSHD2 IC50): 97 nM

C[C@@H]1CCC[C@H](C)N1CCOc1ccc(-c2ccc3cc(-c4cn(C)c(=O)c5[nH]ccc45)ccc3n2)cc1 [SLU-2233, 4-{2-[4-(2-((2R,6S)-2,6-dimethylpiperidin-1-yl)ethoxy)phenyl]quinolin-6-yl}-6-methyl-1H-pyrrolo[2,3-c]pyridin-7(6H)-one]
IC50 (read-out: DUX4* MT FSHD2: IC50): 290 nM
IC50 (read-out: DUX4* MT FSHD2 IC50): 290 nM

Cn1cc(-c2ccc3nc(-c4ccc(OCCN5CCOCC5)cc4)ccc3c2)c2cc[nH]c2c1=O [SLU-2234, 6-methyl-4-{2-[4-(2-morpholinoethoxy)phenyl]quinolin-6-yl}-1,6-dihydro-7H-pyrrolo[2,3-c]pyridin-7-one]
IC50 (read-out: DUX4* MT FSHD2: IC50): 69 nM
IC50 (read-out: DUX4* MT FSHD2 IC50): 69 nM

C[C@@H]1C(=O)N(C)CCN1CCOc1ccc(-c2ccc3nc(-c4cn(C)c(=O)c5[nH]ccc45)ccc3c2)cn1 [SLU-2235, (R)-4-{6-[6-(2-(2,4-dimethyl-3-oxopiperazin-1-yl)ethoxy)pyridin-3-yl]quinolin-2-yl}-6-methyl-1H-pyrrolo[2,3-c]pyridin-7(6H)-one]
IC50 (read-out: DUX4* MT FSHD2: IC50): 12 nM
IC50 (read-out: DUX4* MT FSHD2 IC50): 12 nM

C[C@H]1C(=O)N(C)CCN1CCOc1ccc(-c2ccc3cc(-c4cn(C)c(=O)c5[nH]ccc45)ccc3n2)cc1 [SLU-2236, (S)-4-{2-[4-(2-(2,4-dimethyl-3-oxopiperazin-1-yl)ethoxy)phenyl]quinolin-6-yl}-6-methyl-1H-pyrrolo[2,3-c]pyridin-7(6H)-one]
IC50 (read-out: DUX4* MT FSHD2: IC50): 13 nM
IC50 (read-out: DUX4* MT FSHD2 IC50): 13 nM

C[C@@H]1C(=O)N(C)CCN1CCOc1ccc(-c2ccc3cc(-c4cn(C)c(=O)c5[nH]ccc45)ccc3n2)cn1 [SLU-2240, (R)-4-{2-[6-(2-(2,4-dimethyl-3-oxopiperazin-1-yl)ethoxy)pyridin-3-yl]quinolin-6-yl}-6-methyl-1,6-dihydro-7H-pyrrolo[2,3-c]pyridin-7-one]
IC50 (read-out: DUX4* MT FSHD2: IC50): 35 nM
IC50 (read-out: DUX4* MT FSHD2 IC50): 35 nM

CN1CCN(CCOc2ccc(-c3ccc4cc(-c5cn(C)c(=O)c6[nH]ccc56)ccc4n3)cc2)C(C)(C)C1=O [SLU-2241, 6-methyl-4-{2-[4-(2-(2,2,4-trimethyl-3-oxopiperazin-1-yl)ethoxy)phenyl]quinolin-6-yl}-1H-pyrrolo[2,3-c]pyridin-7(6H)-one]
IC50 (read-out: DUX4* MT FSHD2: IC50): 110 nM
IC50 (read-out: DUX4* MT FSHD2 IC50): 110 nM

Cn1cc(-c2ccc3nc(-c4ccc(OCCN5CCNC(=O)C5)cc4)ccc3c2)c2cc[nH]c2c1=O [SLU-2242, 6-methyl-4-{2-[4-(2-(3-oxopiperazin-1-yl)ethoxy)phenyl]quinolin-6-yl}-1H-pyrrolo[2,3-c]pyridin-7(6H)-one]
IC50 (read-out: DUX4* MT FSHD2: IC50): 93 nM
IC50 (read-out: DUX4* MT FSHD2 IC50): 93 nM

CCN1CCN(CCOc2ccc(-c3ccc4cc(-c5cn(C)c(=O)c6[nH]ccc56)ccc4n3)cc2)CC1=O [SLU-2243, 4-{2-[4-(2-(4-ethyl-3-oxopiperazin-1-yl)ethoxy)phenyl]quinolin-6-yl}-6-methyl-1H-pyrrolo[2,3-c]pyridin-7(6H)-one]
IC50 (read-out: DUX4* MT FSHD2: IC50): 110 nM
IC50 (read-out: DUX4* MT FSHD2 IC50): 110 nM

CN1CCN(CCOc2ccc(-c3ccc4cc(-c5cn(C)c(=O)c6[nH]ccc56)ccc4n3)cc2)CC1=O [SLU-2244, 6-methyl-4-{2-[4-(2-(4-methyl-3-oxopiperazin-1-yl)ethoxy)phenyl]quinolin-6-yl}-1H-pyrrolo[2,3-c]pyridin-7(6H)-one]
IC50 (read-out: DUX4* MT FSHD2: IC50): 28 nM
IC50 (read-out: DUX4* MT FSHD2 IC50): 28 nM

CN1CCN(CCOc2ccc(-c3ccc4cc(-c5cn(C)c(=O)c6[nH]ccc56)ccc4n3)cc2)CCC1=O [SLU-2277, 6-methyl-4-{2-[4-(2-(4-methyl-5-oxo-1,4-diazepan-1-yl)ethoxy)phenyl]quinolin-6-yl}-1,6-dihydro-7H-pyrrolo[2,3-c]pyridin-7-one]
IC50 (read-out: DUX4* MT FSHD2: IC50): 20 nM
IC50 (read-out: DUX4* MT FSHD2 IC50): 20 nM

Cn1cc(-c2ccc3cc(-c4ccc(OCCN5CCOCC5)cc4)ccc3n2)c2cc[nH]c2c1=O [SLU-2278, 6-methyl-4-{6-[4-(2-morpholinoethoxy)phenyl]quinolin-2-yl}-1,6-dihydro-7H-pyrrolo[2,3-c]pyridin-7-one]
IC50 (read-out: DUX4* MT FSHD2: IC50): 120 nM
IC50 (read-out: DUX4* MT FSHD2 IC50): 120 nM

C[C@@H]1CCC[C@H](C)N1CCOc1ccc(-c2ccc3nc(-c4cn(C)c(=O)c5[nH]ccc45)ccc3c2)cc1 [SLU-2279, 4-{6-[4-(2-((2R,6S)-2,6-dimethylpiperidin-1-yl)ethoxy)phenyl]quinolin-2-yl}-6-methyl-1H-pyrrolo[2,3-c]pyridin-7(6H)-one]
IC50 (read-out: DUX4* MT FSHD2: IC50): 420 nM
IC50 (read-out: DUX4* MT FSHD2 IC50): 420 nM

CN1CCN(CCOc2ccc(-c3ccc4nc(-c5cn(C)c(=O)c6[nH]ccc56)ccc4c3)cc2)C(C)(C)C1=O [SLU-2280, 6-methyl-4-{6-[4-(2-(2,2,4-trimethyl-3-oxopiperazin-1-yl)ethoxy)phenyl]quinolin-2-yl}-1H-pyrrolo[2,3-c]pyridin-7(6H)-one]
IC50 (read-out: DUX4* MT FSHD2: IC50): 120 nM
IC50 (read-out: DUX4* MT FSHD2 IC50): 120 nM

C#CCN1CCN(CCOc2ccc(-c3ccc4cc(-c5cn(C)c(=O)c6[nH]ccc56)ccc4n3)cc2)CC1=O [SLU-2281, 6-methyl-4-{2-[4-(2-(3-oxo-4-(prop-2-yn-1-yl)piperazin-1-yl)ethoxy)phenyl]quinolin-6-yl}-1H-pyrrolo[2,3-c]pyridin-7(6H)-one]
IC50 (read-out: DUX4* MT FSHD2: IC50): 130 nM
IC50 (read-out: DUX4* MT FSHD2 IC50): 130 nM

CCCN1CCN(CCOc2ccc(-c3ccc4cc(-c5cn(C)c(=O)c6[nH]ccc56)ccc4n3)cc2)CC1=O [SLU-2282, 6-methyl-4-{2-[4-(2-(3-oxo-4-propylpiperazin-1-yl)ethoxy)phenyl]quinolin-6-yl}-1H-pyrrolo[2,3-c]pyridin-7(6H)-one]
IC50 (read-out: DUX4* MT FSHD2: IC50): 54 nM
IC50 (read-out: DUX4* MT FSHD2 IC50): 54 nM

CN1CCN(CCOc2ccc(-c3ccc4nc(-c5cn(C)c(=O)c6[nH]ccc56)ccc4c3)cc2)CC1=O [SLU-2283, 6-methyl-4-{6-[4-(2-(4-methyl-3-oxopiperazin-1-yl)ethoxy)phenyl]quinolin-2-yl}-1H-pyrrolo[2,3-c]pyridin-7(6H)-one]
IC50 (read-out: DUX4* MT FSHD2: IC50): 160 nM
IC50 (read-out: DUX4* MT FSHD2 IC50): 160 nM

C[C@@H]1C(=O)N(C)CCCN1CCOc1ccc(-c2ccc3cc(-c4cn(C)c(=O)c5[nH]ccc45)ccc3n2)cc1 [SLU-2284, (R)-4-{2-[4-(2-(2,4-dimethyl-3-oxo-1,4-diazepan-1-yl)ethoxy)phenyl]quinolin-6-yl}-6-methyl-1H-pyrrolo[2,3-c]pyridin-7(6H)-one]
IC50 (read-out: DUX4* MT FSHD2: IC50): 90 nM
IC50 (read-out: DUX4* MT FSHD2 IC50): 90 nM

Cn1cc(-c2ccc3nc(-c4ccc(OCCN5CCC(F)(F)CC5)cc4)ccc3c2)c2cc[nH]c2c1=O [SLU-2285, 4-{2-[4-(2-(4,4-difluoropiperidin-1-yl)ethoxy)phenyl]quinolin-6-yl}-6-methyl-1H-pyrrolo[2,3-c]pyridin-7(6H)-one]
IC50 (read-out: DUX4* MT FSHD2: IC50): 570 nM
IC50 (read-out: DUX4* MT FSHD2 IC50): 570 nM

C[C@@H]1CN(C)C(=O)CN1CCOc1ccc(-c2ccc3cc(-c4cn(C)c(=O)c5[nH]ccc45)ccc3n2)cc1 [SLU-2286, (R)-4-{2-[4-(2-(2,4-dimethyl-5-oxopiperazin-1-yl)ethoxy)phenyl]quinolin-6-yl}-6-methyl-1H-pyrrolo[2,3-c]pyridin-7(6H)-one]
IC50 (read-out: DUX4* MT FSHD2: IC50): 63 nM
IC50 (read-out: DUX4* MT FSHD2 IC50): 63 nM

C[C@H]1CN(C)C(=O)CN1CCOc1ccc(-c2ccc3cc(-c4cn(C)c(=O)c5[nH]ccc45)ccc3n2)cc1 [SLU-2287, (S)-4-{2-[4-(2-(2,4-dimethyl-5-oxopiperazin-1-yl)ethoxy)phenyl]quinolin-6-yl}-6-methyl-1,6-dihydro-7H-pyrrolo[2,3-c]pyridin-7-one]
IC50 (read-out: DUX4* MT FSHD2: IC50): 108 nM
IC50 (read-out: DUX4* MT FSHD2 IC50): 108 nM

CN1CCN(CCOc2ccc(-c3ccc4cc(-c5cn(C)c(=O)c6[nH]ccc56)ccc4n3)cc2)CC1 [SLU-2288]
IC50 (read-out: DUX4* MT FSHD2: IC50): 250 nM
IC50 (read-out: DUX4* MT FSHD2 IC50): 250 nM

C[C@@H]1C(=O)N(C)CCN1CCCOc1cccc(-c2ccc3cc(-c4cn(C)c(=O)c5[nH]ccc45)ccc3n2)c1 [SLU-2292, (R)-4-{2-[3-(3-(2,4-dimethyl-3-oxopiperazin-1-yl)propoxy)phenyl]quinolin-6-yl}-6-methyl-1H-pyrrolo[2,3-c]pyridin-7(6H)-one]
IC50 (read-out: DUX4* MT FSHD2: IC50): 25 nM
IC50 (read-out: DUX4* MT FSHD2 IC50): 25 nM

C=CCn1cc(-c2ccc3nc(-c4ccc(OCCN5CCN(C)C(=O)[C@H]5C)cc4)ccc3c2)c2cc[nH]c2c1=O [SLU-2293, (R)-6-allyl-4-{2-[4-(2-(2,4-dimethyl-3-oxopiperazin-1-yl)ethoxy)phenyl]quinolin-6-yl}-1H-pyrrolo[2,3-c]pyridin-7(6H)-one]
IC50 (read-out: DUX4* MT FSHD2: IC50): 18 nM
IC50 (read-out: DUX4* MT FSHD2 IC50): 18 nM
